# Measurements from PMC7383509 (Clinical Pharmacology in Drug Development, 2019).
# Where “and” joins values, the source holds several entries; their conditions need not be identical. Equal entries are not always repeated. Where two headings read alike, the source gives them in different places.
# How the values were obtained:
# [1] = type: in vivo, human; settings: for AUC / clearance / Cmax / Vd / half-life: 0.5 mg, single 0.5 mg IV; for AUC: AUC0‐t; for AUC / Cmax: dose-normalized to 1 mg; for clearance: CL; for Vd: Vz; for half-life: t½
# [2] = cited from earlier work
# [3] = Hepatic impairment study: safety and tolerability; type: in vivo, human
# [4] = Renal impairment study: safety and tolerability; type: in vivo, human
# [5] = human plasma; cited from earlier work
# [6] = type: in vivo, human; settings: for Tmax / AUC / clearance / Cmax / Vd / half-life: human, plasma, iv; for AUC: AUC0‐t; for AUC / clearance / Cmax / Vd / half-life: ESRD subjects, single 0.5 mg IV; for AUC / Cmax: dose-normalized to 1 mg; for clearance: CL; for Vd: Vz; for half-life: t½
# μ receptor = settings: major metabolites of oliceridine; ref data on file; cited from earlier work
# [7] = human, plasma, iv, arithmetic mean ± SD, mild hepatic impairment
# [8] = human, plasma, iv, arithmetic mean ± SD, moderate hepatic impairment
# [9] = human, plasma, iv, arithmetic mean ± SD, severe hepatic impairment
# [10] = human, plasma, iv, geometric mean (%CVb), severe hepatic impairment
# [11] = human, plasma, iv, geometric mean (%CVb), mild hepatic impairment
# [12] = human, plasma, iv, geometric mean (%CVb), moderate hepatic impairment
# [13] = mild hepatic impairment, 0.5 mg IV, 10 subjects
# [14] = moderate hepatic impairment, 0.5 mg IV, 10 subjects
# [15] = severe hepatic impairment, 0.5 mg IV, 6 subjects
# [16] = ESRD subjects/healthy subjects, ANCOVA
# [17] = ESRD subjects/healthy subjects, ANCOVA, dose-adjusted
smiles,measurement,setting,value
COc1ccsc1CNCC[C@@]1(c2ccccn2)CCOC2(CCCC2)C1 [Oliceridine],"CL, GM ratio Mild:Healthy (90%CI)",[1]; ANOVA,"1.05 (0.77, 1.43)"
same,"CL, GM ratio Moderate:Healthy (90%CI)",[1]; ANOVA,"0.80 (0.59, 1.09)"
same,"CL, GM ratio Severe:Healthy (90%CI)",[1]; ANOVA,"0.99 (0.71, 1.38)"
same,"t½, GM ratio Mild:Healthy (90%CI)",[1]; ANOVA,"1.26 (0.96, 1.66)"
same,"t½, GM ratio Moderate:Healthy (90%CI)",[1]; ANOVA,"2.09 (1.59, 2.75)"
same,"AUC0‐t, GM ratio Mild:Healthy (90%CI)","[1]; dose-normalized, ANOVA","0.93 (0.68, 1.28)"
same,"AUC0‐∞, GM ratio Mild:Healthy (90%CI)","[1]; dose-normalized, ANOVA","0.95 (0.70, 1.29)"
same,"AUC0‐∞, GM ratio Moderate:Healthy (90%CI)","[1]; dose-normalized, ANOVA","1.25 (0.92, 1.70)"
same,"AUC0‐∞, GM ratio Severe:Healthy (90%CI)","[1]; dose-normalized, ANOVA","1.01 (0.72, 1.41)"
same,"Cmax, GM ratio Mild:Healthy (90%CI)","[1]; dose-normalized, ANOVA","1.19 (0.54, 2.60)"
same,"Cmax, GM ratio Moderate:Healthy (90%CI)","[1]; dose-normalized, ANOVA","1.20 (0.55, 2.62)"
same,"Cmax, GM ratio Severe:Healthy (90%CI)","[1]; dose-normalized, ANOVA","0.24 (0.10, 0.56)"
same,AUC,[1]; [7],23.3 ± 7.9 ng·h/mL
same,AUC,[1]; [8],29.9 ± 11.3 ng·h/mL
same,AUC,[1]; [9],23.4 ± 10.3 ng·h/mL
same,AUC,[1]; [10],21.8 ng·h/mL
same,clearance,[1]; [7],807 mL/min
same,clearance,[1]; [8],595 mL/min
same,clearance,[1]; [9],738 mL/min
same,clearance,[1]; [11],742 mL/min
same,clearance,[1]; [12],565 mL/min
same,clearance,[1]; [10],697 mL/min
same,Cmax,[1]; [7],62.3 ± 48.8 ng/mL
same,Cmax,[1]; [8],46.6 ± 19.4 ng/mL
same,Cmax,[1]; [9],11.9 ± 10.6 ng/mL
same,Cmax,[1]; [11],41.4 ng/mL
same,Cmax,[1]; [12],41.9 ng/mL
same,Cmax,[1]; [10],8.4 ng/mL
same,Vd,[1]; [7],181 ± 81.2 L
same,Vd,[1]; [8],215 ± 39.1 L
same,Vd,[1]; [9],370 ± 130 L
same,Vd,[1]; [11],167 L
same,Vd,[1]; [12],212 L
same,Vd,[1]; [10],348 L
same,half-life,[1]; [7],2.7 ± 0.53 h
same,half-life,[1]; [8],4.7 ± 2.1 h
same,half-life,[1]; [9],6.3 ± 2.6 h
same,half-life,[1]; [11],2.6 h
same,half-life,[1]; [12],4.3 h
same,half-life,[1]; [10],5.8 h
same,AUC(0-t),"[1]; human, plasma, iv, 1 mg",24.1 ± 7.5 ng·h/mL
same,Share of the metabolites eliminated in the urine,[2]; remainder eliminated in the feces,Approximately 70%
same,"At least 1 TEAE, no. of events","[3]; healthy, 1 mg IV, 8 subjects",0 no. of events
same,"Somnolence, no. of events","[3]; healthy, 1 mg IV, 8 subjects",0 no. of events
same,"Somnolence, subjects","[3]; healthy, 1 mg IV, 8 subjects",0 (0%) n (%)
same,Subjects with TEAEs by maximum severity: Mild,"[3]; healthy, 1 mg IV, 8 subjects",0 (0%) n (%)
same,Subjects with TEAEs by maximum severity: Moderate,"[3]; healthy, 1 mg IV, 8 subjects",0
same,Subjects with TEAEs by maximum severity: Severe,"[3]; healthy, 1 mg IV, 8 subjects",0
same,Subjects with at least 1 TEAE,"[3]; healthy, 1 mg IV, 8 subjects",0 (0%) n (%)
same,"TEAEs by maximum severity: Mild, no. of events","[3]; healthy, 1 mg IV, 8 subjects",0 no. of events
same,Duration of somnolence TEAEs,"[3]; mild hepatic impairment group, mild intensity, resolved completely",approximately 1 hour
same,"At least 1 TEAE, no. of events",[3]; [13],2 no. of events
same,"Somnolence, no. of events",[3]; [13],2 no. of events
same,"Somnolence, subjects",[3]; [13],2 n (%) and 2 (20%) n (%)
same,Subjects with TEAEs by maximum severity: Mild,[3]; [13],2 (20%) n (%)
same,Subjects with TEAEs by maximum severity: Moderate,[3]; [13],0
same,Subjects with TEAEs by maximum severity: Severe,[3]; [13],0
same,Subjects with at least 1 TEAE,[3]; [13],2 (20%) n (%)
same,"TEAEs by maximum severity: Mild, no. of events",[3]; [13],2 no. of events
same,"At least 1 TEAE, no. of events",[3]; [14],0 no. of events
same,"Somnolence, no. of events",[3]; [14],0 no. of events
same,"Somnolence, subjects",[3]; [14],0 (0%) n (%)
same,Subjects with TEAEs by maximum severity: Mild,[3]; [14],0 (0%) n (%)
same,Subjects with TEAEs by maximum severity: Moderate,[3]; [14],0
same,Subjects with TEAEs by maximum severity: Severe,[3]; [14],0
same,Subjects with at least 1 TEAE,[3]; [14],0 (0%) n (%)
same,"TEAEs by maximum severity: Mild, no. of events",[3]; [14],0 no. of events
same,"At least 1 TEAE, no. of events",[3]; [15],0 no. of events
same,"Somnolence, no. of events",[3]; [15],0 no. of events
same,"Somnolence, subjects",[3]; [15],0 (0%) n (%)
same,Subjects with TEAEs by maximum severity: Mild,[3]; [15],0 (0%) n (%)
same,Subjects with TEAEs by maximum severity: Moderate,[3]; [15],0
same,Subjects with TEAEs by maximum severity: Severe,[3]; [15],0
same,Subjects with at least 1 TEAE,[3]; [15],0 (0%) n (%)
same,"TEAEs by maximum severity: Mild, no. of events",[3]; [15],0 no. of events
same,"At least 1 TEAE, no. of events","[4]; ESRD, 0.5 mg IV, 9 subjects",2 no. of events
same,"Dizziness, subjects","[4]; ESRD, 0.5 mg IV, 9 subjects",0
same,"Euphoria, subjects","[4]; ESRD, 0.5 mg IV, 9 subjects",0
same,"Fatigue, no. of events","[4]; ESRD, 0.5 mg IV, 9 subjects",1 no. of events
same,"Fatigue, subjects","[4]; ESRD, 0.5 mg IV, 9 subjects",1 (11%) n (%)
same,"Feeling of relaxation, subjects","[4]; ESRD, 0.5 mg IV, 9 subjects",0
same,"Headache, subjects","[4]; ESRD, 0.5 mg IV, 9 subjects",0
same,"Nausea, no. of events","[4]; ESRD, 0.5 mg IV, 9 subjects",1 no. of events
same,"Nausea, subjects","[4]; ESRD, 0.5 mg IV, 9 subjects",1 (11%) n (%)
same,"Pain in extremity, subjects","[4]; ESRD, 0.5 mg IV, 9 subjects",0
same,Subjects with TEAEs by maximum severity: Mild,"[4]; ESRD, 0.5 mg IV, 9 subjects",2 (22%) n (%)
same,Subjects with TEAEs by maximum severity: Moderate,"[4]; ESRD, 0.5 mg IV, 9 subjects",0
same,Subjects with TEAEs by maximum severity: Severe,"[4]; ESRD, 0.5 mg IV, 9 subjects",0
same,Subjects with at least 1 TEAE,"[4]; ESRD, 0.5 mg IV, 9 subjects",2 (22%) n (%)
same,"TEAEs by maximum severity: Mild, no. of events","[4]; ESRD, 0.5 mg IV, 9 subjects",2 no. of events
same,"Total number of mild TEAEs, overall",[4]; all 17 subjects of the renal study,11
same,"Subjects who experienced TEAEs, overall",[4]; all subjects of the renal study (6 of 17),35.3%
same,"Dizziness, no. of events","[4]; healthy, 1 mg IV, 8 subjects",1 no. of events
same,"Dizziness, subjects","[4]; healthy, 1 mg IV, 8 subjects",1 (12.5%) n (%)
same,"Euphoria, no. of events","[4]; healthy, 1 mg IV, 8 subjects",2 no. of events
same,"Euphoria, subjects","[4]; healthy, 1 mg IV, 8 subjects",2 (25%) n (%)
same,"Fatigue, no. of events","[4]; healthy, 1 mg IV, 8 subjects",2 no. of events
same,"Fatigue, subjects","[4]; healthy, 1 mg IV, 8 subjects",2 (25%) n (%)
same,"Feeling of relaxation, no. of events","[4]; healthy, 1 mg IV, 8 subjects",1 no. of events
same,"Feeling of relaxation, subjects","[4]; healthy, 1 mg IV, 8 subjects",1 (12.5%) n (%)
same,"Headache, no. of events","[4]; healthy, 1 mg IV, 8 subjects",1 no. of events
same,"Headache, subjects","[4]; healthy, 1 mg IV, 8 subjects",1 (12.5%) n (%)
same,"Nausea, no. of events","[4]; healthy, 1 mg IV, 8 subjects",3 no. of events
same,"Nausea, subjects","[4]; healthy, 1 mg IV, 8 subjects",2 (25%) n (%)
same,"Pain in extremity, no. of events","[4]; healthy, 1 mg IV, 8 subjects",1 no. of events
same,"Pain in extremity, subjects","[4]; healthy, 1 mg IV, 8 subjects",1 (12.5%) n (%)
same,Subjects with TEAEs by maximum severity: Mild,"[4]; healthy, 1 mg IV, 8 subjects",4 (50%) n (%)
same,Subjects with TEAEs by maximum severity: Moderate,"[4]; healthy, 1 mg IV, 8 subjects",0
same,Subjects with TEAEs by maximum severity: Severe,"[4]; healthy, 1 mg IV, 8 subjects",0
same,"TEAEs by maximum severity: Mild, no. of events","[4]; healthy, 1 mg IV, 8 subjects",9 no. of events
same,Free fraction,[5],23%
same,"CL, ratio of geometric means",[6]; [16],81.2
same,"t½, ratio of geometric means",[6]; [16],128
same,"AUC0‐t, ratio of geometric means",[6]; [17],108
same,"AUC0‐∞, ratio of geometric means",[6]; [17],123
same,"Cmax, ratio of geometric means",[6]; [17],113
same,Tmax,[6]; 0.5 mg,0.25 h
same,AUC,"[6]; 0.5 mg, arithmetic mean (SD)",19.7 ng·h/mL
same,AUC,"[6]; 0.5 mg, geometric mean (%CVb)",19.1 ng·h/mL
same,clearance,"[6]; 0.5 mg, arithmetic mean (SD)",847 mL/min
same,clearance,"[6]; 0.5 mg, geometric mean (%CVb)",820 mL/min
same,Cmax,"[6]; 0.5 mg, arithmetic mean (SD)",9.96 ng/mL
same,Cmax,"[6]; 0.5 mg, geometric mean (%CVb)",9.87 ng/mL
same,Vd,"[6]; 0.5 mg, arithmetic mean (SD)",219 L
same,Vd,"[6]; 0.5 mg, geometric mean (%CVb)",212 L
same,half-life,"[6]; 0.5 mg, arithmetic mean (SD)",3.11 h
same,half-life,"[6]; 0.5 mg, geometric mean (%CVb)",2.99 h
same,Tmax,[6]; 1 mg,0.25 h
NCC[C@@]1(c2ccccn2)CCOC2(CCCC2)C1 [TRV0109662],Activity at the μ receptor,μ receptor,inactive
same,Share of total by AUC,[2]; major metabolite of oliceridine,≥ 10%
same,Share of total drug‐related material,"[2]; major metabolite of oliceridine, ref data on file",17%
